# Literature values, collected in patent publication US20080207756A1, “Bio-absorbable oil suspension” (ATRIUM MEDICAL CORPORATION, priority 2007, published 2008).
# Where a name gives a salt, the structure may show the parent alone.
# Details: liquid Bupivacaine HCL without epinephrine
compound,measurement,value
CCCCN1CCCCC1C(=O)Nc1c(C)cccc1C (stereo not shown) [Bupivacaine HCL],half life,2 to 3 h
